Converted amounts (≈) assume the structure as drawn.
How the values were obtained:
[1] = Toxicity against brine shrimp; assay type: organism-based; settings: artemia, in vivo
[2] = Cytotoxicity against mouse 9PS cells; assay type: functional; settings: read-out: ED50 (the source's name)
[3] = tested on: A549; assay: Cytotoxicity against human A549 cells; assay type: functional; settings: read-out: ED50 (the source's name)
[4] = tested on: HT-29; assay: Cytotoxicity against human HT-29 cells; assay type: functional; settings: read-out: ED50 (the source's name)
[5] = tested on: MCF7; assay: Cytotoxicity against human MCF7 cells; assay type: functional; settings: read-out: ED50 (the source's name)

## CC(=O)OC[C@]12[C@H](OC(C)=O)[C@H](OC(C)=O)C3C(OC(C)=O)[C@@]14O[C@@]3(C)COC(=O)c1cccnc1[C@@H](C)[C@H](C)C(=O)OC([C@H](OC(=O)c1ccc(=O)n(C)c1)[C@@H]2OC(=O)c1ccccc1)[C@]4(C)O (stereo not given in full) [HIPPOCRATEINE]
[1]
  LC50: 212 µg/mL (≈ 221 µM)
[2]
  EC50: 0.185 µg/mL (≈ 0.193 µM)
[3]
  EC50: > 10 µg/mL
[4]
  EC50: > 10 µg/mL
[5]
  EC50: > 10 µg/mL
